Data reported in the supplement of paper PMC10627819.

Experiments:
[1] = tested on: S. pneumoniae D39V; experiment: fitness (endpoint OD595 vs no drug) (fraction); higher = more growth
In short: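 Fitness expresses the optical density reached at the stationary-phase transition as a fraction of the robust mean of no-drug control wells. It is capped at 1. Measurements were OD595 every 30 min for 14 h at 37 °C after inoculation of 384-well plates at OD595 0.01 (30 µl, or 55 µl for S. pneumoniae), minus the first reading.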

[2] = tested on: B. subtilis 168; experiment: Bliss interaction score (quartile over a dose matrix) (fitness difference); higher = more antagonism (negative = synergy)
In short: (§1)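 Fitness was defined as normalised growth: OD595 at the start of stationary phase divided by the plate's robust no-drug mean and capped at 1. Single-drug fitness was inferred from combination measurements. The Bliss score is observed fitness minus the product of the single-drug values, summarised by quartiles across technical, biological and donor/recipient replicates.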

[3] = tested on: S. aureus DSM 20231; experiment: as above
In short: as §1

[4] = tested on: S. aureus Newman; experiment: as above
In short: as §1

[5] = tested on: S. pneumoniae D39V; experiment: as above
In short: as §1
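For Bliss interaction score (quartile over a dose matrix) in this document: first quartile when negative (synergy) and third quartile when positive (antagonism).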
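For fitness (endpoint OD595 vs no drug) in this document: OD595 on entry to stationary phase over no-drug wells; at most 1.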

C[C@H]1COc2c(N3CCN(C)CC3)c(F)cc3c(=O)c(C(=O)O)cn1c23 [Levofloxacin] + Clc1ccc(COC(Cn2ccnc2)c2ccc(Cl)cc2Cl)c(Cl)c1 [Miconazole]
[1]
Conditions	fitness
first compound 0.1725 µg/mL, partner 1.25 µg/mL	0.955
first compound 0.1725 µg/mL, partner 2.5 µg/mL	0.976
first compound 0.1725 µg/mL, partner 5 µg/mL	0.963
first compound 0.2 µg/mL, partner 1.073 µg/mL	≥ 1
first compound 0.2 µg/mL, partner 2.145 µg/mL	≥ 1
first compound 0.2 µg/mL, partner 4.29 µg/mL	0.978
first compound 0.345 µg/mL, partner 1.25 µg/mL	0.866
first compound 0.345 µg/mL, partner 2.5 µg/mL	0.856
first compound 0.345 µg/mL, partner 5 µg/mL	0.859
first compound 0.4 µg/mL, partner 1.073 µg/mL	0.934
first compound 0.4 µg/mL, partner 2.145 µg/mL	0.941
first compound 0.4 µg/mL, partner 4.29 µg/mL	0.825
first compound 0.69 µg/mL, partner 1.25 µg/mL	0.576
first compound 0.69 µg/mL, partner 2.5 µg/mL	0.432
first compound 0.69 µg/mL, partner 5 µg/mL	0.578
first compound 0.8 µg/mL, partner 4.29 µg/mL	0.769

Conditions	Bliss interaction score
[2]	0.0649
[3]	-0.0265
[4]	0.0464
[5]	0.11

CC1(C)S[C@@H]2[C@H](NC(=O)[C@H](N)c3ccc(O)cc3)C(=O)N2[C@H]1C(=O)O [Amoxicillin] + CN(C)C(=O)C(CCN1CCC(O)(c2ccc(Cl)cc2)CC1)(c1ccccc1)c1ccccc1 [Loperamide]
fitness, [1]
Conditions	partner 17.14 µg/mL	partner 20 µg/mL	partner 34.28 µg/mL	partner 40 µg/mL	partner 80 µg/mL
first compound 0.0008 µg/mL	0.993	–	0.945	–	–
first compound 0.0015 µg/mL	0.977	≥ 1	0.935	≥ 1	≥ 1
first compound 0.003 µg/mL	0.868	0.999	0.839	0.994	0.991

fitness, [1], one replicate
Conditions	first compound 0.0008 µg/mL	first compound 0.0015 µg/mL	first compound 0.003 µg/mL	first compound 0.006 µg/mL
partner 20 µg/mL	≥ 1	–	–	0.442
partner 40 µg/mL	≥ 1	–	–	0.448
partner 68.57 µg/mL	≥ 1	0.934	0.894	–
partner 80 µg/mL	≥ 1	–	–	0.212

Conditions	Bliss interaction score
[2]	0.0397
[3]	-0.117
[4]	0.0589
[5]	0.0558

CC1(C)S[C@@H]2[C@H](NC(=O)[C@H](N)c3ccc(O)cc3)C(=O)N2[C@H]1C(=O)O [Amoxicillin] + Clc1ccc(COC(Cn2ccnc2)c2ccc(Cl)cc2Cl)c(Cl)c1 [Miconazole]
fitness, [1]
Conditions	partner 1.073 µg/mL	partner 1.25 µg/mL	partner 2.145 µg/mL	partner 2.5 µg/mL	partner 4.29 µg/mL	partner 5 µg/mL
first compound 0.0008 µg/mL	≥ 1	–	0.881	–	0.882	–
first compound 0.0015 µg/mL	≥ 1	0.781	0.948	0.831	0.848	0.906
first compound 0.003 µg/mL	0.994	0.736	0.778	0.814	0.739	0.849

fitness, [1], one replicate
Conditions	partner 1.25 µg/mL	partner 2.5 µg/mL	partner 5 µg/mL
first compound 0.0008 µg/mL	0.89	0.799	0.987
first compound 0.006 µg/mL	0.355	0.264	0.395

Conditions	Bliss interaction score
[2]	0.0957
[3]	0.0878
[4]	0.0536
[5]	-0.0912

CN(C)C(=O)C(CCN1CCC(O)(c2ccc(Cl)cc2)CC1)(c1ccccc1)c1ccccc1 [Loperamide] + Cn1nnc(-c2ccc(-c3ccc(N4C[C@H](CO)OC4=O)cc3F)cn2)n1 [Tedizolid]
fitness, [1]
Conditions	first compound 17.14 µg/mL	first compound 20 µg/mL	first compound 34.28 µg/mL	first compound 40 µg/mL	first compound 80 µg/mL
partner 0.03125 µg/mL	–	0.997	–	≥ 1	≥ 1
partner 0.0625 µg/mL	–	≥ 1	–	≥ 1	≥ 1
partner 0.125 µg/mL	0.933	0.908	0.961	0.94	0.976
partner 0.5 µg/mL	0.532	–	0.529	–	–

[1], first compound 68.57 µg/mL, one replicate
Conditions	fitness
partner 0.125 µg/mL	0.979
partner 0.25 µg/mL	0.963
partner 0.5 µg/mL	0.468

Conditions	Bliss interaction score
[2]	0.06
[3]	0.198
[4]	0.102
[5]	0.243

CC1(C)S[C@@H]2[C@H](NC(=O)[C@H](N)c3ccc(O)cc3)C(=O)N2[C@H]1C(=O)O [Amoxicillin] + C[C@H]1c2cccc(O)c2C(=O)C2=C(O)[C@]3(O)C(=O)C(C(N)=O)=C(O)[C@@H](N(C)C)[C@@H]3[C@@H](O)[C@@H]21 [Doxycycline]
[1], one replicate
Conditions	fitness
first compound 0.0008 µg/mL, partner 0.003875 µg/mL	0.967
first compound 0.0008 µg/mL, partner 0.00775 µg/mL	0.976
first compound 0.0015 µg/mL, partner 0.003875 µg/mL	0.961
first compound 0.0015 µg/mL, partner 0.00775 µg/mL	0.988
first compound 0.003 µg/mL, partner 0.003875 µg/mL	0.944
first compound 0.003 µg/mL, partner 0.00775 µg/mL	0.973
first compound 0.006 µg/mL, partner 0.0155 µg/mL	0.386
first compound 0.006 µg/mL, partner 0.031 µg/mL	0.421
first compound 0.006 µg/mL, partner 0.062 µg/mL	0.451

fitness, [1]
Conditions	first compound 0.0008 µg/mL	first compound 0.0015 µg/mL	first compound 0.003 µg/mL
partner 0.0155 µg/mL	0.931	0.899	0.898
partner 0.031 µg/mL	0.853	0.86	0.903
partner 0.062 µg/mL	0.797	0.767	0.724

Conditions	Bliss interaction score
[2]	0.136
[3]	-0.0671
[4]	-0.0414
[5]	0.151
